Results taken from patent US7371225B2, “Method for convection enhanced delivery of therapeutic agents” (The United States of America as represented by the …, priority 2002, dated 2008).
Where two headings read alike, the source gives them in different places.

Experiments:
cerebral white matter [1] = assay: CED of iopamidol in cerebral white matter with real-time CT-imaging; type: in vivo, primates (Macaca mulatta)
Method: (§1) Four primates (Macaca mulatta) underwent CED of various volumes (total volume of 90 to 150 μl) of iopamidol (777 Da) in the cerebral white matter combined with CT-imaging during and after infusion (up to 5 days post-infusion), as well as quantitative autoradiography (QAR). Clinical observation (≦20 weeks) and histopathology were used to evaluate safety and toxicity.

cerebral white matter [2] = conditions: in vivo
Method: as §1

[3] = tested on: sympathetic ganglia explants; conditions: cited from earlier work
[4] = in vivo; cited from earlier work
putamen = tested on: putamen; parameters: species or system rhesus monkeys; conditions: rhesus monkey, in vivo
Method: Anesthesia was induced with ketamine (10 mg/kg), xylazine (0.5 mg/kg), and thiopental sodium (1 mg/kg). The animals were secured in a monkey stereotactic frame (Kopf Instruments, Tujunga, Calif.). A Hamilton 32-gauge metal blunt tip needle connected to a 250 μl Hamilton syringe (Thompson Instruments, Chantilly, Va.) was stereotactically inserted in the center of the right putamen (anteroposterior 15.5 mm, mediolateral 12 mm and dorsoventral 24.5 mm relative to the tympanic canals and the mid-sagittal sinus)^15. After a delay of 90 minutes, the infusion was begun at 1.0 μl/min.
For CT, 130 μl, 200 μl and 235 μl of the tracer IPA-BSA/^14C-BSA mixture (35-55 Iopanoic Acid/BSA, 61.3-80.4 mg/ml ^14C-BSA) was infused. […]
CT and MRI images were analyzed in the MEDx software package (Sensor Systems, Inc., Sterling, Va.) running on a Sun workstation (Sun Microsystems, Inc., Palo Alto, Calif.). […] These were measured by volume segmentation using two different thresholds. Vd(1) was calculated as the volumes of distribution from CT and MRI containing at least 10% of the total increase in signal intensity due to the addition of contrast agent. A rectangular region of interest (ROI) over the infusion area was defined and in the corresponding site in the contralateral hemisphere, and the perfused maximal signal intensity (peak) and the unperfused maximal signal intensity (background) was measured. […]

C[C@H](O)C(=O)Nc1c(I)c(C(=O)NC(CO)CO)c(I)c(C(=O)NC(CO)CO)c1I [iopamidol]
Distribution of infusate identifiable post-infusion up to (cerebral white matter [1]; CT-imaging): up to 72 hours | Homogeneity of distribution of infusate (cerebral white matter [1]; CT-imaging): homogeneous | Overall Vd:Vi ratio, mean±S.D. (cerebral white matter [1]; real-time CT-imaging, total volume 90 to 150 μl): 4.1±0.7 | Clinical or histopathologic evidence of toxicity (cerebral white matter [2]): None of the animals had clinical or histopathologic evidence of toxicity

CCC(Cc1c(I)cc(I)c(N)c1I)C(=O)O (centres unmarked) [iopanoic acid]
Toxicity in tissue culture ([3]; 0.01 mM): No toxicity | Neurotoxicity in the clinical setting [4]: not to be neurotoxic | Side effects when used for imaging the gallbladder [4]: rare side effects (acute renal insufficiency, acute thrombocytompenia)

CCC(Cc1c(I)cc(I)c(N)c1I)C(=O)[O-].[Na+] (centres unmarked) [sodium iopanoate]
Toxicity in tissue culture ([3]; 0.1 mM): vacuolization of fibroblasts | Toxicity in tissue culture ([3]; 1 mM): immediate death of sympathetic ganglia explants

IPA-BSA: Iopanoic acid conjugated to BSA, surrogate tracer for CT
Mean Vd(1) (putamen): 3.44±0.74 | Mean Vd(2) (putamen): 4.51±1.31
